The results in this text go back to US7018989B2, “Chemical compounds” (University College Cardiff Consultants, LTD, priority 1995, dated 2006).

In data set [1] the test system is Moloney Sarcoma Virus [MSV]. Description: MSV-induced tumour formation and survival in NMRI mice. Format: in vivo. Particulars: MSV infected mice. How it is done: Drug doses are 50[low ] or 200 [high] mg/kg/day given i.p. for 4 days starting 1 hour before MSV inoculation.
In Vivo Testing Inhibitory Effects of Test Compounds on the Initiation of MSV-Induced Tumour Formation in NRMI Mice and on the Survival of MSV Innoculated NMRI Mice.
Mice infected with Moloney Sarcoma Virus [MSV] were treated daily with either placebo, or d4T [at one of two doses] or with compound 324 at one of the same [equi-molar] doses.
Two- to three-day old NMRI mice (weighing—2 gram) were innoculated subcutaneously (s.c.) in the left hind leg with 50 μl MSV (100 foci forming units, as measured by in vitro determination of the virus-induced transformation of murine C3H embryo fibroblast cells). At 4 to 5 days post-infection, tumours develop and rapidly increase in volume upon further aging of the mice. Within 10 to 12 days post-infection, mice (then weighing—5 to 6 gram) die from the viral infection. Drug treatment started 1 hour prior to infection of the virus, and further compound administration was given daily i.p. for an additional 3 days. The mean day of tumour initiation (±standard deviation) and the mean day of survival of the mice (±standard deviation) was calculated and statistical significance of the average delay of tumour formation and the mean day of survival in the treated groups versus the untreated (control) group was assessed by two-tailed student's t-test.

For data set [2], the system named is HIV-1. Kind of data set: microbe, parasite or virus in culture. Particulars: Human immunodeficiency virus 1, CCRF-CEM. In a few lines: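 MT4 or CEM cells at 5×10^5/mL were infected with HIV-1 or HIV-2 at 100 CCID50/mL and cultured with compound dilutions. CEM endpoint: microscopic giant-cell formation after 4 days; MT4 endpoint: viable-cell count by trypan blue after 5 days. EC50 and CC50 in μM.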

The subject of a further data set is hog liver esterase. Description: Incubation with hog liver esterase. It is filed as in vitro ADME. Particulars: 1 mM, 37° C., Tris-HCl buffer containing 5 mM MgCl2. How it is done:
This metabolites co-eluted with the predominant metabolite (X) that was found in the cell extracts after incubation of the intact cells with [^3H] 324. metabolite X corresponds to a compound of formula (10), wherein Y is oxygen, X^1 is NH, X^2 is oxygen, B is thymine, R^1 is Me, R^2 is hydrogen.

A short description of data set [3]: Toxicity in C8166 cells (MTT-Formazen). Particulars: human, Table 3. Format: cell-based. In a few lines:
(§1)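 C8166 cells (4×10^4/well) in RPMI 1640 with 10% calf serum, mixed with 5-fold compound dilutions, then given 10 CCID50 HIV-1 III-B and kept 5–7 days. Viability of infected and uninfected cells measured by MTT-formazan; duplicates on at least two occasions, averaged.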

Data set [4] deals with HIV-2. Description: Inhibition of HIV-2 in CEM/TK- cells. As to conditions: Human immunodeficiency virus 2, CEM-TK(-). It is filed as cell-based. In a few lines:
(§2)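 Cells at 5×10^5 per mL were infected with virus at 100 CCID50 per mL and mixed with test compound dilutions. In CEM cultures, giant cell formation was scored microscopically at day 4; in MT-4 cultures, viable cells were counted by trypan blue staining at day 5.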

A further data set can be described thus: Toxicity to CEM cells. As to conditions: human, mock-infected CEM cells; Table 6; mean of two or more repeat experiments. Format: cell-based, human.
Another data set in a line: Toxicity to MT-4 cells. It is filed as cell-based, human. Particulars: human, mock-infected MT-4 cells; Table 6; mean of two or more repeat experiments; read-out: CC50 MT4: CC50 for toxicity to MT-4 cells.
The next data set deals with III-B strain of HIV-1. Description: microbe, parasite or virus in culture. Format: cell-based. The method, boiled down:
as §1

In data set [5] the test system is HIV-2. Kind of data set: Inhibition of HIV-2 in MT4 cells. Format: cell-based. As to conditions: Human immunodeficiency virus 2, MT4, read-out: HIV2 MT4: EC50 for inhibition of HIV-2 in MT4 cells. In a few lines:
as §2

The test system of data set [6] is HIV-1. Description: Inhibition of HIV-1 in MT4 cells. Format: cell-based. As to conditions: Human immunodeficiency virus 1, MT4; Table 6; mean of two or more repeat experiments; read-out: HIV1 MT4: EC50 for inhibition of HIV-1 in MT4 cells. The method, boiled down:
as §2

The next data set has as its target HIV RT (Human immunodeficiency virus type 1 group M subtype B, UniProt P03366). Description: Inhibition of HIV reverse transcriptase. As to conditions: Table 4. Format: biochemical.
Data set [7] has as its system HIV-2. Kind of data set: Inhibition of HIV-2 in CEM cells (giant cell formation). It is filed as cell-based. Particulars: Human immunodeficiency virus 2, CCRF-CEM, read-out: HIV2 CEM: EC50 for inhibition of HIV-2 in CEM cells. The method, boiled down: as §2

Like-named read-outs stand apart in the source and are kept apart here.

Consider `COC(=O)C(C)NP(=O)(OCC1C=CC(n2cc(C)c(=O)[nH]c2=O)O1)Oc1ccccc1` (centres unmarked) [Compound 324, 2′,3′-dideoxy-2′,3′-didehydrothymidine 5′-(phenyl N-methoxyalaninyl) phosphoramidate], for which the “effect on tumour appearance” value in data set [1] (high-dose (200 mg/kg/day i.p. for 4 days)) is “significant effect”. Moreover, the “effect on tumour appearance (first disease parameter)” value in [1] (low dose (50 mg/kg/day i.p. for 4 days)) is reported as “an effect”. The EC50 with HIV-1 [2] (read-out: EC50 CEM HIV1) came out at 180 nM; in the data set on HIV-1 [2] (read-out: HIV1 CEM: EC50 for inhibition of HIV-1 in CEM cells), 75 nM; in the data set with HIV-2 [4] (read-out: EC50 CEM TK− HIV2), 80 nM; with HIV-2 [4] (read-out: HIV2 CEM-TK-: EC50 for inhibition of HIV-2 in CEM/TK^− cells), 75 nM; with III-B strain of HIV-1 (Human immunodeficiency virus 1, C8166, Table 4, read-out: EC50 8166 HIV1), 3.2 nM; in the data set on III-B strain of HIV-1 (Human immunodeficiency virus 1, HIV1 in C8166 cells, Table 3, read-out: Activity EC50), 3.2 nM. The EC50 in the data set on HIV-2 [5] came out at 53 nM; with HIV-1 [6], 81 nM; at HIV RT, 50000 nM; in the data set with HIV-2 [7], 75 nM. Moreover, the “metabolite formation with hog liver esterase” value in the data set with hog liver esterase is given as “time-dependent formation of a metabolite was observed”. Further, the values for the CC50 (in [3]; in “Toxicity to CEM cells”) were 150000 nM and 100000 nM, respectively. In “Toxicity to MT-4 cells”, the cytotoxic concentration (CC50) at 5 days is more than 100000 nM. For the same molecule, in the data set with III-B strain of HIV-1 (HIV1 in C8166 cells, Table 3), the “Selectivity CC50/EC50 × 10^3” value was 46.9 × 10^3.

The term CC50 denotes the concentration that lowers cell viability or growth by half.
